This note sets out measurements from patent US7173063B1, “Topoisomerase poisons for the treatment of proliferative disorders” (Fred Hutchinson Cancer Research Center, priority 2000, dated 2007).

The target in the assay is T1, Topo I (Saccharomyces cerevisiae, UniProt P04786).
T1 construct: yeast strains that are DSB repair defective, with (rad50) or without Topo I (rad50, top1), and a wild type control (wt); endogenous in cells; host or cells: S. cerevisiae A364a background, rad50 (erg6 pdr1 pdr3), compared with rad50 top1
T1 sequence (P04786 1-769): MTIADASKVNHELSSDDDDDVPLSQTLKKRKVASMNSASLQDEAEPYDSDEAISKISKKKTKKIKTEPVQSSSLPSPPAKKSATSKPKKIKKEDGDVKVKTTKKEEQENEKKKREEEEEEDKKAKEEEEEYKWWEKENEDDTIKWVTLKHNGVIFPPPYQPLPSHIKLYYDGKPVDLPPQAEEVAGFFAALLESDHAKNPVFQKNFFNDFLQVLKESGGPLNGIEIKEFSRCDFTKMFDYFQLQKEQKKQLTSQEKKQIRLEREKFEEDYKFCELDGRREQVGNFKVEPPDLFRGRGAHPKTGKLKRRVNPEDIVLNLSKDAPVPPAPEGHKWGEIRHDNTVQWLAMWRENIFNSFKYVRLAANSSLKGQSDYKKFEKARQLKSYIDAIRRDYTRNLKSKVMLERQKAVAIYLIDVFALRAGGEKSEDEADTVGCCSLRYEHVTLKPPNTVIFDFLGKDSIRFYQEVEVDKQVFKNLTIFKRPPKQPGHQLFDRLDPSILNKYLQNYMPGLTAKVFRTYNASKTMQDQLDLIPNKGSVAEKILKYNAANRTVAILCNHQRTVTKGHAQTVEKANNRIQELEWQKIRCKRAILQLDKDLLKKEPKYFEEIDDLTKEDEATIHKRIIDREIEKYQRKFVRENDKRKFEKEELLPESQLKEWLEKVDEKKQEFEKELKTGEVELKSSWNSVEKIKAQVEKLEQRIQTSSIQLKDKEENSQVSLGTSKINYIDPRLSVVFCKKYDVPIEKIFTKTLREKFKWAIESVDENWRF
The experiment in a line: Yeast toxicity in strains with or without Topo I (rad50 vs rad50 top1). The format is cell-based. The following applies: rad50 top1 vs rad50 strain. The source says: The strains are derived from the A364a genetic background, with the exception of BY4705, which is derived from the S288C background. Gene disruptions were generated by PCR fragment directed replacement (Baudin, et al., Nucleic Acids Research 21: 3329–30 (1993), Guldener, et al., Nucleic Acids Research 24: 2519–24 (1996)). Yeast overexpressing topoisomerase II was constructed by a PCR fragment directed promoter replacement of the topoisomerase II promoter with the yeast GPD promoter flanked upstream by the URA3 marker. All strains (except BY4705) bear the pleitropic drug sensitizing mutations erg6, pdr1, and pdr3 (Balzi, et al., Journal of Bioenergetics & Biomembranes 27: 71–6 (1995), Delaveau, et al, Molecular & General Genetics 244: 501–11 (1994), Gaber, et al., Molecular & Cellular Biology 9: 3447–56 (1989), Saunders, et al., Canadian Journal of Genetics & Cytology, 24: 493–503 (1982). Subik, et al, Current Genetics 10: 665–70 (1986)). The haploid yeast strain BY4705 (Brachmann, et al., Yeast 14: 115–32 (1998)) was used in the experiments described in FIG. 5. Plasmids expressing yeast or human topoisomerase I genes under the GAL promoter (Knab, et al., Journal of Biological Chemistry 268: 22322–30 (1993). Knab, et al., Journal of Biological Chemistry 270: 6141–8 (1995)) were transformed into BY4705 using standard procedures.
Yeast toxicity assays were performed essentially as follows: Exponentially growing cultures of the appropriate strains were diluted in synthetic complete media to a concentration of 7.4×10^4 cells/mL, and aliquots (135 μL) were transferred to each well of clear flat-bottomed 96 well plates. Compounds were added in duplicate or triplicate as 15 μL of the appropriate dilution in 5% DMSO. A 15 μL portion of 5% DMSO was added to control wells. Assay plates were incubated at 30° C. for approximately seven generations growth in solvent control wells (as monitored by OD660, typically 21–24 hours), then the OD660 of the cultures was measured in a microplate reader (Bio-Tek). […]
With `CC(=O)[C@]1(O)Cc2c(O)c3c(c(O)c2[C@@H](O[C@H]2C[C@H](N)[C@H](O)[C@H](C)O2)C1)C(=O)c1ccccc1C3=O` [idarubicin, reference compound], the “effect of deletion of the TOP1 gene on toxicity” value (shortened to “effect”) is on record as “little effect”.

With `O=c1c(Cl)c(Cl)cnn1CCCl` [compound IIa], the “effect” value is “greatly reduced”.

Take `O=C(CCl)Nc1ccc(C(=O)N/N=C/c2ccc(Cl)cc2)cc1` [compound Ia]: the “effect” value is “greatly reduced”.
